SMILES	melting point
C[C@H](CO)Nc1nc(SCc2cccc(F)c2F)nc2cncc(Cl)c12 [Compound 9, (2R)-2-[(5-Chloro-2-(2,3-difluorobenzylmercapto)-pyrido[3,4-d]pyrimidine-4-yl)amino]propanol]	146 to 148 °C
C[C@H](CO)Nc1nc(SCc2cccc(F)c2F)nc2cnc(Cl)cc12 [Compound 16a, (2R)-2-[(6-Chloro-2-(2,3-difluorobenzylmercapto)-pyrido[3,4-d]pyrimidine-4-yl)amino]propanol]	211 to 213 °C
C[C@H](CO)Nc1nc(SCc2cccc(F)c2F)nc2cnc(-n3ccnc3)cc12 [Compound 16b, (2R)-2-[(6-Imidazolyl-2-(2,3-difluorobenzylmercapto)-pyrido[3,4-d]pyrimidine-4-yl)amino]propanol]	245 to 247 °C
C[C@H](CO)Nc1nc(SCc2cccc(F)c2F)nc2cnc(-c3ccccc3)cc12 [Compound 17a, (2R)-2-[(2-(2,3-Difluorobenzylmercapto)-6-phenyl-pyrido[3,4-d]pyrimidine-4-yl)amino]propanol]	202 to 204 °C
C[C@H](CO)Nc1nc(SCc2cccc(F)c2F)nc2cnc(-c3ccco3)cc12 [Compound 17b, (2R)-2-[(2-(2,3-Difluorobenzylmercapto)-6-(2-furanyl)-pyrido[3,4-d]pyrimidine-4-yl)amino]propanol]	163 to 165 °C
Cc1ccc(-c2cc3c(N[C@H](C)CO)nc(SCc4cccc(F)c4F)nc3cn2)o1 [Compound 17c, (2R)-2-[(2-(2,3-Difluorobenzylmercapto)-6-(5-methylfuran-2-yl)-pyrido[3,4-d]pyrimidine-4-yl)amino]propanol]	162 to 164 °C
C[C@H](CO)Nc1nc(SCc2cccc(F)c2F)nc2cnc(-c3cccs3)cc12 [Compound 17d, (2R)-2-[(2-(2,3-Difluorobenzylmercapto)-6-(2-thienyl)-pyrido[3,4-d]pyrimidine-4-yl)amino]propanol]	176 to 178 °C
C[C@H](CO)Nc1nc(SCc2cccc(F)c2F)nc2cnc(N)cc12 [Compound 21, (2R)-2-[(6-Amino-2-(2,3-difluorobenzylmercapto)-pyrido[3,4-d]pyrimidine-4-yl)amino]propanol]	174 to 176 °C
CC[C@H](CO)Nc1nc(SCc2cccc(F)c2F)nc2cnccc12 [Compound 24a, (2R)-2-[(2-(2,3-Difluorobenzylmercapto)-pyrido[3,4-d]pyrimidine-4-yl)amino]butanol]	174 to 176 °C
CC(C)(CO)Nc1nc(SCc2cccc(F)c2F)nc2cnccc12 [Compound 24b, 2-[(2-(2,3-Difluorobenzylmercapto)-pyrido[3,4-d]pyrimidine-4-yl)amino]-2-methyl-propan-1-ol]	166 to 168 °C
OCC(O)CNc1nc(SCc2cccc(F)c2F)nc2cnccc12 (stereo not drawn) [Compound 24c, 3-[(2-(2,3-Difluorobenzylmercapto)-pyrido[3,4-d]pyrimidine-4-yl)amino]propan-1,2-diol]	156 to 158 °C
OCCNc1nc(SCc2cccc(F)c2F)nc2cnccc12 [Compound 24d, 3-[(2-(2,3-Difluorobenzylmercapto)-pyrido[3,4-d]pyrimidine-4-yl)amino]ethanol]	181 to 183 °C
OCCOc1nc(SCc2cccc(F)c2F)nc2cnccc12 [Compound 24e, 3-[(2-(2,3-Difluorobenzylmercapto)-pyrido[3,4-d]pyrimidine-4-yl)oxy]ethanol]	181 to 183 °C
C[C@H](CO)Nc1nc(NCc2cccc(F)c2F)nc2cnccc12 [Compound 26a, (2R)-2-[(2-(2,3-Difluorobenzylamino)-pyrido[3,4-d]pyrimidine-4-yl)amino]propanol]	136 to 140 °C
C[C@H](CO)Nc1nc(OCc2cccc(F)c2F)nc2cnccc12 [Compound 26b, (2R)-2-[(2-(2,3-Difluorobenzyloxy)-pyrido[3,4-d]pyrimidine-4-yl)amino]propanol]	167 to 169 °C
C[C@H](CO)Nc1nc(Sc2ccccc2)nc2cnccc12 [Compound 26c, (2R)-2-[(2-(Phenylmercapto)-pyrido[3,4-d]pyrimidine-4-yl)amino]propanol]	193 to 196 °C
C[C@H](CO)Nc1nc(SCCc2ccccc2)nc2cnccc12 [Compound 26d, (2R)-2-[(2-(Phenylethylmercapto)-pyrido[3,4-d]pyrimidine-4-yl)amino]propanol]	182 to 184 °C
CCCCCCSc1nc(N[C@H](C)CO)c2ccncc2n1 [Compound 26e, (2R)-2-[(2-(Hexylmercapto)-pyrido[3,4-d]pyrimidine-4-yl)amino]propanol]	147 to 149 °C

Reference: publication PMC10004157
